Measured values published in US20230241150A1, “Compositions and Uses Thereof” (Natur-Tech Pharmacal Co., Ltd, priority 2020, published 2023).
Marks after values point to notes of the source that are not given here.

Legend:
[1] = system: PTZ-induced epileptic mice; test: PTZ-induced epilepsy in mice: seizure stage (Racine scale), convulsions, mortality; type: in vivo, ICR mice; details: carbamazepine 80 mg/kg intragastric daily 7 days; PTZ 80 mg/kg i.p.; n=12
Description: As known to those skilled in the art, pentylenetetrazole (PTZ) is a powerful seizure-inducing agent, and its epileptic model is considered to be one of the ideal models for systemic tonic seizures. PTZ itself has no special neurotoxicity, so it is widely used in the study of epilepsy pathogenesis and the screening of anti-epileptic drugs. When PTZ induces epilepsy in mice, its seizures are characterized by clonic seizures in the initial stage, followed by systemic tonic seizures soon afterwards. PTZ is a central nervous system stimulant that acts on GABA-GABAA receptor system. It promotes the enhancement of the excitatory synaptic facilitation and reduces the release of GABA. This in turn reduces the inhibitory ability, increases the sensitivity to convulsions, and increases the excitability of the central nervous system, thereby inducing EP. According to its seizure characteristics, in this experiment, these two seizure forms were used as indicators and combined with the current Racine scale to analyze their epileptic behavior.
(§1) The mice in each group were given intragastric administration daily, for 7 consecutive days. 30 minutes after the last administration, except for the blank control group, the mice in the other groups were injected intraperitoneally with 80 mg/kg of PTZ to induce convulsions in the mice. Each mouse was placed in a separate cage for observation for 30 minutes, and behavioral changes such as stages of seizure, duration, latent period and mortality rate of the mice were recorded.
The Racine scale (see: https://en.wikipedia.org/wiki/Racine_stages) was used to determine the level of epilepsy in mice: • Stage 0: No response; • Stage I: Wet dog shakes, facial twitches, clonus, tremors (such as eye blinking, moustache movements, rhythmic chewing, etc.); • Stage II: Stage I plus rhythmic nodding; • Stage III: Stage II plus forelimb clonus, but no rearing; • Stage IV: Rearing and oblique bilateral falling, or rearing with forelimb clonus; and • Stage V: Imbalance, tipping, twitching of limbs, generalized clonus, generalized tonic seizures, falling, rolling, and loss of postural control.

[2] = system: brain of convulsive mice; type: in vivo, ICR mice; details: carbamazepine 80 mg/kg intragastric daily 7 days; PTZ 80 mg/kg i.p.; n=12
Experimental: as §1
After completing the behavioral observation determined by the above relevant indicators, experiments were conducted to study the effect of the composition on the contents of NO, Na-K-ATP, Asp, and 5-HT in the brain of convulsive mice. After the behavioral observation was over, the mice were immediately executed, and the brain tissues and the required organs were quickly taken out, weighed, and then the brain tissues were placed in liquid nitrogen and stored in a refrigerator at -80° C. Blood stains on the surface were washed off with pre-cooled saline before measurement. The tissues were then weighed and PBS was added in a volume ratio of 1:9 to fully homogenize the brain tissues. The homogenate was centrifuged at 3000 r/min for 20 minutes. The supernatant was collected as samples for subsequent ELISA test to detect the content of GABA, Glu, NO, Na^+-K^+-ATP, Asp, 5-HT, etc.

Which results are given for NC(=O)N1c2ccccc2C=Cc2ccccc21 [Carbamazepine]?
Duration of convulsions [1]: 165.3 ± 32.5 s; Latent period of convulsions [1]: 365.2 ± 25.6 s; Morality rates [1]: 16.7%; Number of convulsions [1]: 8; number of seizures, Stage I [1]: 0.9±0.4; number of seizures, Stage II [1]: 1.4±0.8; number of seizures, Stage III [1]: 1.5±0.8; number of seizures, Stage IV [1]: 2.1±1.8; number of seizures, Stage V [1]: 6.3±2.1; seizure behavior: number of mice at Stage 0 [1]: 1; seizure behavior: number of mice at Stage I [1]: 3; seizure behavior: number of mice at Stage II [1]: 3; seizure behavior: number of mice at Stage III [1]: 2; seizure behavior: number of mice at Stage IV [1]: 2; seizure behavior: number of mice at Stage V [1]: 1*; 5-HT content in the brain [2]: 14.6 ± 2.6 ng/L; NO content in the brain [2]: 26.4 ± 2.5 µmol/L; Na-K-ATP content in the brain [2]: 192.1 ± 5.7 ng/L
